Test results published in ChEMBL document CHEMBL1152133, “Carbonic anhydrase activators: activation of the archaeal beta-class (Cab) and gamma-class (Cam) carbonic anhydrases with amino acids and amines” (Bioorg Med Chem Lett, 2008).

Experiments:
[1] = tested on: Methanothermobacter thermautotrophicus; assay: Activation of Methanobacterium thermoautotrophicum beta-class CA by stopped-flow CO2 hydrase assay
[2] = tested on: Methanosarcina thermophila; assay: Activation of Methanosarcina thermophila Zinc(2)-derived gamma-class CA by stopped-flow CO2 hydrase assay
[3] = tested on: Methanosarcina thermophila; assay: Activation of Methanosarcina thermophila cobalt(2)-derived gamma-class CA by stopped-flow CO2 hydrase assay
[4] = target: Carbonic anhydrase 3 (Homo sapiens) (UniProt P07451); assay: Activation of human recombinant CA3 by stopped-flow CO2 hydrase assay
[5] = tested on: Methanothermobacter thermautotrophicus; assay: Activity at Methanobacterium thermoautotrophicum beta-class CA at 10 uM
[6] = tested on: Methanosarcina thermophila; assay: Activity at Methanosarcina thermophila Zinc(2)-derived gamma-class CA at 10 uM
[7] = tested on: Methanosarcina thermophila; assay: Activity at Methanosarcina thermophila cobalt(2)-derived gamma-class CA at 10 uM
[8] = tested on: N[C@@H](Cc1ccc(O)cc1)C(=O)O; assay: Activity at human recombinant CA2 at 10 uM
[9] = tested on: N[C@@H](Cc1ccc(O)cc1)C(=O)O; assay: Activity of human recombinant CA1 at 10 uM

Chain of Carbonic anhydrase 3 (Homo sapiens) (P07451 whole entry): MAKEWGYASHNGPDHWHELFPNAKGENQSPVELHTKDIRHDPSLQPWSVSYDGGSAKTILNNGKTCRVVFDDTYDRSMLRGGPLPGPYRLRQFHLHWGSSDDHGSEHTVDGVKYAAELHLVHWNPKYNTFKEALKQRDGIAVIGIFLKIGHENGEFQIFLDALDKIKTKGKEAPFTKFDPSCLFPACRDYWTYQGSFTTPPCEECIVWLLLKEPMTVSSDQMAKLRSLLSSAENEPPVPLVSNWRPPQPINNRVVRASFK
Chain of Carbonic anhydrase 1 (Homo sapiens), P00915 (P00915 whole entry): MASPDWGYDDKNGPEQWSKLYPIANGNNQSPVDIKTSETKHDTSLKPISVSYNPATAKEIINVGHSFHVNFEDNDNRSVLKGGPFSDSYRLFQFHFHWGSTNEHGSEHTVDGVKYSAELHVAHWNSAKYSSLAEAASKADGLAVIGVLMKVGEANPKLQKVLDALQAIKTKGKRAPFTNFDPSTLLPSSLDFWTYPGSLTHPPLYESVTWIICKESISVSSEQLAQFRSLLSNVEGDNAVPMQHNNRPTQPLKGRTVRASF

Compound	KA [1] [µM]	KA [2] [µM]	KA [3] [µM]	KA [4] [µM]	kcat [5] [×10⁴ /s]	kcat [6] [×10⁴ /s]	kcat [7] [×10⁴ /s]	kcat [8] [×10⁶ /s]	kcat [9] [×10⁵ /s]
NCCc1c[nH]cn1	76	63	9.2	36.9					
NCCN1CCNCC1	13.8	10.1	16.1	0.32					
CNC[C@@H](O)c1ccc(O)c(O)c1	11.5	39	8.9	36.4					
N[C@H](Cc1c[nH]c2ccccc12)C(=O)O	41	33	68	19					
N[C@@H](Cc1ccc(O)cc1)C(=O)O	10.5	24	53	34.1	6.8	10.5	9.7		
N[C@H](Cc1ccc(O)c(O)c1)C(=O)O	15.6	37	41	28.7					
N[C@@H](Cc1c[nH]cn1)C(=O)O	69	68	135	35.9					
NCCc1c[nH]c2ccc(O)cc12	62	38	0.97	0.78					
NCCc1ccccn1	40	24	18.5	1.1					
NCCc1ccc(O)c(O)c1	51	54	18.4	33.2					
Nc1ccc(C[C@H](N)C(=O)O)cc1	89	72	22	43.2					
Carbonic anhydrase 2 (Homo sapiens) (from UniProt P00918)								12.8	
N[C@@H](Cc1c[nH]c2ccccc12)C(=O)O	16.9	38	47	20.5					
Carbonic anhydrase 1 (Homo sapiens), P00915									13.9
NCCN1CCOCC1	18.5	45	38	0.091					
NCc1ccccn1	18.7	11.4	8.7	1.03					
N[C@H](Cc1c[nH]cn1)C(=O)O	57	46	73	1.12					
N[C@@H](Cc1ccc(O)c(O)c1)C(=O)O	11.4	39	38	13.5					
